Columns and labels:
[1] = 101 kPa, Liquid; for speed of sound: Pulse-echo method
[2] = molar heat capacity at constant pressure; details: 101 kPa, Liquid
[3] = xn = mol fraction of the nth substance listed; details: 101 kPa, Liquid, x2 = 0; for speed of sound: Pulse-echo method

ClCCCCCCCl [1,6-dichlorohexane]
Details | mass density [kg/m3] | molar heat capacity at constant pressure [J/K/mol] | speed of sound [m/s]
[1], 293.01 K | – | – | 1337.8
[1], 293.15 K | 1068.33 | – | –
[1], 298.15 K | 1063.61 | – | –
[1], 298.18 K | – | – | 1319.7
[1], 303.15 K | 1058.87 | – | 1302.4
[1], 308.14 K | – | – | 1285
[1], 308.15 K | 1054.14 | – | –
[1], 313.15 K | 1049.39 | – | –
[1], 313.23 K | – | – | 1267.4
[2], 293.15 K | – | 239.21 | –
[2], 294.15 K | – | 239.5 | –
[2], 295.15 K | – | 239.69 | –
[2], 296.15 K | – | 240.02 | –
[2], 297.15 K | – | 240.35 | –
[2], 298.15 K | – | 240.64 | –
[2], 299.15 K | – | 240.85 | –
[2], 300.15 K | – | 241.15 | –
[2], 301.15 K | – | 241.46 | –
[2], 302.15 K | – | 241.8 | –
[2], 303.15 K | – | 242.06 | –
[2], 304.15 K | – | 242.34 | –
[2], 305.15 K | – | 242.62 | –
[2], 306.15 K | – | 242.83 | –
[2], 307.15 K | – | 243.21 | –
[2], 308.15 K | – | 243.49 | –
[2], 309.15 K | – | 243.73 | –
[2], 310.15 K | – | 244 | –
[2], 311.15 K | – | 244.35 | –
[2], 312.15 K | – | 244.68 | –
[2], 313.15 K | – | 244.91 | –

CCCCCCC [heptane]
[1]
Details | mass density [kg/m3] | speed of sound [m/s]
292.7 K | – | 1154.1
293.15 K | 683.79 | –
298 K | – | 1131.1
298.15 K | 679.56 | –
302.98 K | – | 1109.5
303.15 K | 675.3 | –
308.06 K | – | 1087.4
308.15 K | 671.02 | –
313.15 K | 666.71 | –
313.45 K | – | 1064.3

CCCCCCC [heptane] + ClCCCCCCCl
[3]
Details | mass density [kg/m3] | speed of sound [m/s]
292.7 K | – | 1154.1
293.15 K | 683.79 | –
298 K | – | 1131.1
298.15 K | 679.56 | –
302.98 K | – | 1109.5
303.15 K | 675.3 | –
308.06 K | – | 1087.4
308.15 K | 671.02 | –
313.15 K | 666.71 | –
313.45 K | – | 1064.3

— the NIST ThermoML archive (doi:10.1021/je100610v)
